Data as given in publication PMC10305617, “Sesquiterpene Coumarin Ethers with Selective Cytotoxic Activities from the Roots of Ferula huber-morathii Peşmen (Apiaceae) and Unequivocal Determination of the Absolute Stereochemistry of Samarcandin” (Pharmaceuticals, 2023).

How the values were obtained:
Type in all cases: cell-based, Human
[1] = system: HUVEC; assay: MTS cell viability (cytotoxic activity) assay, non-cancerous HUVEC; conditions: Homo sapiens, 72 h, mean ± SD, at least three experiments
Text: (§1) Human colorectal cancer (COLO 205, CCL-222), breast cancer (MCF-7, HTB-22), chronic myelogenous leukemia (K-562, CCL-243), and umbilical vein/vascular endothelium (HUVEC, CRL-1730) cell lines were obtained from the American Type Culture Collection. The COLO 205, MCF-7, K-562, and HUVEC cell lines were maintained in Roswell Park Memorial Institute ([…], Wisent, Montreal, QC, CANADA), Eagle′s Minimum Essential Medium (EMEM, Wisent, Montreal, QC, CANADA), Iscove’s Modified Dulbecco’s Medium (IMDM, Wisent, Montreal, QC, CANADA), and Dulbecco′s Modified Eagle Medium (DMEM, Wisent, Montreal, QC, CANADA) supplemented with 10% fetal bovine serum (Capricorn, Ebsdorfergrund, Germany), 100 U/mL penicillin, and 100 µg/mL streptomycin (Wisent, Montreal, QC, CANADA), respectively. All of the cell lines were cultured at 37 °C in a humidified atmosphere containing 5% CO2.
(§2) A 3-[4,5-dimethylthiazol-2-yl]-5-[3-carboxymethoxyphenyl]-2-[4-sulfophenyl]-2H-tetrazolium, inner salt (MTS) cell viability assay was performed to evaluate the cytotoxic activities of the sesquiterpene coumarin ethers isolated from Ferula huber-morathii. HUVEC (1 × 10^4), COLO 205 (3 × 10^4), K-562 (3 × 10^4), and MCF7 (5 × 10^4) were plated in 96-well plates. Then, 24 h later, the tested compounds were dissolved in DMSO, and the cells were exposed to the different concentrations (131.58–1.028 µM) of the compounds for 72 h. Cisplatin and doxorubicin were used as a positive control. Next, an MTS/phenazine methosulfate (PMS) (Promega, Madison, WI, USA and Sigma, St. Louis, MO, USA respectively) mixture was added to each well and incubated for 1–4 h at 37 °C. The absorbance was read on a microplate reader (Biotek, Winooski, VT, USA) at 490 nm. The cytotoxic activities of the compounds were expressed as an IC50 value. The % inhibition of cell proliferation was calculated using the formula: % Inhibition = [1-(A490test/A490cont)] × 100, where A490test = absorbance of the test sample and A490cont = absorbance of the control sample [88]. The values of the 50% inhibition of the cell proliferation (IC50) were calculated by locating the x-axis values corresponding to one-half of the absorbance values of the sample.

[2] = system: COLO 205, K-562, MCF-7 and HUVEC cell lines; assay: MTS cytotoxicity, overall verbal grading over the cell line panel; conditions: authors' verbal summary over COLO 205, K-562, MCF-7, HUVEC
Text: as §1, §2

[3] = system: MCF-7; assay: MTS cell viability (cytotoxic activity) assay, MCF-7; conditions: for IC50: Homo sapiens, MCF7, MCF-7, MTS, 72 h, mean ± SD, at least three experiments; for cytotoxic effect in words, MCF-7: verbal summary
Text: as §1, §2

[4] = system: K-562; assay: MTS cell viability (cytotoxic activity) assay, K-562; conditions: for IC50: Homo sapiens, K562, K-562, MTS, 72 h, mean ± SD, at least three experiments
Text: as §1, §2

[5] = system: COLO 205; assay: MTS cell viability (cytotoxic activity) assay, COLO 205; conditions: for IC50: Homo sapiens, COLO 205, MTS, 72 h, mean ± SD, at least three experiments
Text: as §1, §2

SMILES	IC50 [1] [µM]	cytotoxicity in words [2]	IC50 [3] [µM]	IC50 [4] [µM]	IC50 [5] [µM]	cytotoxic effect in words, MCF-7 [3]	selectivity index MCF-7 ([3]; HUVEC versus MCF-7)	selectivity index K-562 ([4]; HUVEC versus K-562)	selectivity index COLO 205 ([5]; HUVEC versus COLO 205)
CC1(O)CCC2C(C)(C)C(O)CCC2(C)C1COc1ccc2ccc(=O)oc2c1 (centres unmarked) [Samarcandin (14), samarcandin]	169 ± 2.68	little or no cytotoxicity	83.27 ± 0.39	143 ± 1.67	170 ± 3.62				
C=C1CCC2C(C)(C)C(OC(C)=O)CCC2(C)C1COc1ccc2ccc(=O)oc2c1 (centres unmarked) [Farnesiferol A acetate (7), farnesiferol A acetate]	64.5 ± 1.56	moderate or strong cytotoxicity	27.4 ± 0.96	52.7 ± 0.9	66 ± 1.89	moderate cytotoxic activity			
CC(=O)O[C@@H]1CC[C@]2(C)[C@H](CC[C@@](C)(O)[C@@H]2COc2ccc3ccc(=O)oc3c2)C1(C)C [Ferukrin acetate (10), ferukrin acetate]	> 200	little or no cytotoxicity	> 200	88.42 ± 0.85	106 ± 1.35				
C=C1CC[C@@H]2C(C)(C)[C@H](O)CC[C@@]2(C)[C@H]1COc1ccc2ccc(=O)oc2c1 [Farnesiferol A (6), farnesiferol A]	74.4 ± 1.19		> 200	> 200	> 200				
CC1=CC[C@@H]2C(C)(C)[C@@H](O)CC[C@@]2(C)[C@@H]1COc1ccc2ccc(=O)oc2c1 [Conferol (2), conferol]	61.03 ± 0.29	moderate or strong cytotoxicity	16 ± 0.46	35.2 ± 0.89	11.2 ± 0.68		3.82	1.73	5.45
C=C1CC[C@@H]2C(C)(C)C(=O)CC[C@@]2(C)[C@@H]1COc1ccc2ccc(=O)oc2c1 [Badrakemone (4), badrakemone]	> 200	little or no cytotoxicity	> 200	> 200	> 200				
CN1C[C@H](c2cccc(C#N)c2)Oc2ccccc2C1=O [Compound 6, reference compound]		little or no cytotoxicity							
CC1(C)[C@H](O)CC[C@]2(C)[C@@H]1CC[C@@](C)(O)[C@@H]2COc1ccc2ccc(=O)oc2c1 [Ferukrin (9), ferukrin]	> 200	little or no cytotoxicity	81.7 ± 1.96	> 200	> 200				
CC1(C)[C@H]2CC[C@@](C)(O)[C@H](COc3ccc4ccc(=O)oc4c3)[C@]2(C)CC[C@@H]1O [Deacetylkellerin (11), deacetylkellerin]	> 200	little or no cytotoxicity	47.62 ± 0.4	> 200	> 200				
CC1(C)C(=O)CC[C@]2(C)[C@@H]1CC[C@](C)(O)[C@H]2COc1ccc2ccc(=O)oc2c1 [Samarcandone (13), samarcandone]	190 ± 5.2	little or no cytotoxicity	> 200	> 200	125 ± 2.13				
CC(=O)O[C@H]1CC[C@]2(C)[C@H](CC[C@@](C)(O)[C@@H]2COc2ccc3ccc(=O)oc3c2)C1(C)C [Kellerin (12), kellerin]	99.4 ± 1.63		18.24 ± 0.12	78.1 ± 3.13	51.1 ± 1.57	moderate cytotoxic effect			
CC(=O)O[C@H]1CC[C@]2(C)[C@H](CC[C@](C)(O)[C@H]2COc2ccc3ccc(=O)oc3c2)C1(C)C [Samarcandin acetate (15), samarcandin acetate]	> 200	little or no cytotoxicity	> 200	78.7 ± 1.65	70.29 ± 0.65				
C=C1CC[C@@H]2C(C)(C)[C@@H](O)CC[C@@]2(C)[C@H]1COc1ccc2ccc(=O)oc2c1 [Gummosin (8), gummosin]	174.8 ± 0.28	little or no cytotoxicity	> 200	95.5 ± 4.87	> 200				
COc1cccc2c1C(=O)c1c(O)c3c(c(O)c1C2=O)C[C@@](O)(C(=O)CO)C[C@@H]3O[C@H]1C[C@H](N)[C@H](O)[C@H](C)O1 [Doxorubicin, reference compound]	0.2 ± 0.02		2.83 ± 0.25	0.33 ± 0.02	0.08				
